Where two headings read alike, the source gives them in different places.
How the values were obtained:
[1] = test system: MDA-MB-231/ATCC; assay: NCI-60 SRB growth inhibition, one-dose and five-dose; type: cell-based; details: Homo sapiens, MDA-MB-231
[2] = test system: SW-620; assay: as above; type: cell-based; details: Homo sapiens
[3] = test system: SF-295; assay: as above; type: cell-based; details: Homo sapiens
[4] = test system: CNS cancer cell lines; assay: NCI-60 SRB growth inhibition, subpanel; type: cell-based, human; details: for GI50: Homo sapiens
[5] = test system: Melanoma cell lines; assay: NCI-60 SRB growth inhibition, subpanel; type: cell-based, human; details: for GI50: Homo sapiens
[6] = test system: M14; assay: NCI-60 SRB growth inhibition, one-dose and five-dose; type: cell-based; details: Homo sapiens
[7] = test system: UO-31; assay: as above; type: cell-based; details: Homo sapiens, UO-31
[8] = test system: RPMI-8226; assay: as above; type: cell-based; details: Homo sapiens
[9] = test system: NCI/ADR-RES; assay: as above; type: cell-based; details: Homo sapiens
[10] = test system: UACC-257; assay: as above; type: cell-based; details: Homo sapiens
[11] = test system: NSCLC cell lines; assay: NCI-60 SRB growth inhibition, subpanel; type: cell-based, human; details: for GI50: Homo sapiens
[12] = test system: HT29; assay: NCI-60 SRB growth inhibition, one-dose and five-dose; type: cell-based; details: Homo sapiens
[13] = test system: NCI-H23; assay: as above; type: cell-based; details: Homo sapiens
[14] = Cytotoxicity towards normal fibroblasts, safety index; type: cell-based, human; details: human, WI-38 normal fibroblast cells
[15] = test system: WI-38 normal human fibroblast cells; assay: as above; type: cell-based; details: WI-38 versus cancer cell lines
[16] = test system: 786-0; assay: NCI-60 SRB growth inhibition, one-dose and five-dose; type: cell-based; details: Homo sapiens
[17] = test system: SNB-75; assay: as above; type: cell-based; details: Homo sapiens
[18] = test system: Renal cancer cell lines; assay: NCI-60 SRB growth inhibition, subpanel; type: cell-based, human; details: for GI50: Homo sapiens
[19] = test system: NCI-H460; assay: NCI-60 SRB growth inhibition, one-dose and five-dose; type: cell-based; details: Homo sapiens
[20] = test system: Prostate cancer cell lines; assay: NCI-60 SRB growth inhibition, subpanel; type: cell-based, human; details: for GI50: Homo sapiens
[21] = test system: NCI-H322M; assay: NCI-60 SRB growth inhibition, one-dose and five-dose; type: cell-based; details: Homo sapiens
[22] = test system: SK-OV-3; assay: as above; type: cell-based; details: Homo sapiens
[23] = test system: Breast cancer cell lines; assay: NCI-60 SRB growth inhibition, subpanel; type: cell-based, human; details: for GI50: Homo sapiens
[24] = test system: ACHN; assay: NCI-60 SRB growth inhibition, one-dose and five-dose; type: cell-based; details: Homo sapiens
[25] = test system: SN12C; assay: as above; type: cell-based; details: Homo sapiens
[26] = test system: Leukaemia cell lines; assay: NCI-60 SRB growth inhibition, subpanel; type: cell-based, human; details: for GI50: Homo sapiens
[27] = test system: Ovarian cancer cell lines; assay: NCI-60 SRB growth inhibition, subpanel; type: cell-based, human; details: for GI50: Homo sapiens
[28] = test system: UACC-62; assay: NCI-60 SRB growth inhibition, one-dose and five-dose; type: cell-based; details: Homo sapiens
[29] = test system: TK-10; assay: as above; type: cell-based; details: Homo sapiens
[30] = biological target: Human VEGFR-2 (Homo sapiens, UniProt P35968); assay: VEGFR-2 inhibition assay; type: biochemical
Sequence of Human VEGFR-2 (P35968 20-1356): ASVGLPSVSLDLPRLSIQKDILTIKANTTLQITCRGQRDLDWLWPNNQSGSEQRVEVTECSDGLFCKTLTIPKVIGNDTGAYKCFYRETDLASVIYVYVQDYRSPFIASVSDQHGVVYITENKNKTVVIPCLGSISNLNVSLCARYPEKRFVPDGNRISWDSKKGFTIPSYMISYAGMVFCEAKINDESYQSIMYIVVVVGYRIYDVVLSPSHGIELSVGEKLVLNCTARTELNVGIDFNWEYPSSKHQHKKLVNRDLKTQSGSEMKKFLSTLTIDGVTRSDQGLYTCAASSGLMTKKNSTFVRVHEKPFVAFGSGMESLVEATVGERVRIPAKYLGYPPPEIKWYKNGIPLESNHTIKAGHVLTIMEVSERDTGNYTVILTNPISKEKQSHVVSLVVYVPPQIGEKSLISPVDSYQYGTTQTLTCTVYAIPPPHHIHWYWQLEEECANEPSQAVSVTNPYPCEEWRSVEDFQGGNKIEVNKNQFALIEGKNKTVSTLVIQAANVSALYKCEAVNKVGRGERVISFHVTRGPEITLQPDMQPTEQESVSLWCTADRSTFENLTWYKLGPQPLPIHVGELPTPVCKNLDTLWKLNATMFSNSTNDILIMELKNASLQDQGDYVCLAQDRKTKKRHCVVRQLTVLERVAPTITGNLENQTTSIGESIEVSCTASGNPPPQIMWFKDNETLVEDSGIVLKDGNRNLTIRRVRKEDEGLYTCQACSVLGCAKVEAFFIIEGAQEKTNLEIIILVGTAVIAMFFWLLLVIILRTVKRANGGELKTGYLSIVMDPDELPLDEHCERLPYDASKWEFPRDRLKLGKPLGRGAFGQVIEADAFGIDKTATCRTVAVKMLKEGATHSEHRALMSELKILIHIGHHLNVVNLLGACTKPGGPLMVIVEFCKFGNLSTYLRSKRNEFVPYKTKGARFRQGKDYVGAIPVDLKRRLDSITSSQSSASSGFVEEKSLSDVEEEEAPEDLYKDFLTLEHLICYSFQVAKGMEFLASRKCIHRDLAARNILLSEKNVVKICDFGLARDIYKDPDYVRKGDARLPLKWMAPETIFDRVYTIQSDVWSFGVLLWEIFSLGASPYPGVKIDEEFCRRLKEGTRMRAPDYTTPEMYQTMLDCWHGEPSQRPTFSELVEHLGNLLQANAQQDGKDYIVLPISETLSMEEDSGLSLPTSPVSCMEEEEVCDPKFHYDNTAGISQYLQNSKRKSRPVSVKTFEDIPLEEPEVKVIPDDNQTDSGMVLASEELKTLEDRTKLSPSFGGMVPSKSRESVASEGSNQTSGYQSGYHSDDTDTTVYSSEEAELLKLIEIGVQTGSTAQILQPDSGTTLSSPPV

[31] = test system: Colon cancer cell lines; assay: NCI-60 SRB growth inhibition, subpanel; type: cell-based, human; details: for GI50: Homo sapiens
[32] = read-out: percent growth inhibition

## O=C(/C=C/c1cccnc1)c1cccc(NCc2csc3ccccc23)c1 [Compound 5d, (E)-1–(3-((benzo[b]thiophen-3-ylmethyl)amino)phenyl)-3-(pyridin-3-yl)prop-2-en-1-one]
[1]
  GI50: 2.67 µM
[2]; SW-620
  GI50: 1.84 µM
[2]; SW-620, read-out: percent growth inhibition
  inhibition at 10 µM: 166%
[3]; SF-295
  GI50: 5.12 µM
[3]; SF-295, read-out: percent growth inhibition
  inhibition at 10 µM: 92.9%
[4]; read-out: GI50 MG-MID
  GI50: 5.4 µM
[4]; read-out: MG-MID GI50
  GI50: 5.4 µM
[4]; full panel MG-MID / CNS Cancer subpanel MG-MID
  SI (Selectivity Index): 0.88
[5]; read-out: GI50 MG-MID
  GI50: 3.76 µM
[5]; read-out: MG-MID GI50
  GI50: 3.76 µM
[5]; full panel MG-MID / Melanoma subpanel MG-MID
  SI (Selectivity Index): 1.26
[6]; M14
  GI50: 4.14 µM
[6]; M14, read-out: percent growth inhibition
  inhibition at 10 µM: 129%
[7]
  GI50: 4.94 µM
[8]; RPMI-8226
  GI50: 1.99 µM
[8]; RPMI-8226, read-out: percent growth inhibition
  inhibition at 10 µM: 119%
[9]
  GI50: 2.15 µM
[9]; [32]
  inhibition at 10 µM: 101%
[10]; UACC-257
  GI50: 5.58 µM
[10]; UACC-257, read-out: percent growth inhibition
  inhibition at 10 µM: 105%
[11]; read-out: GI50 MG-MID
  GI50: 6.83 µM
[11]; read-out: MG-MID GI50
  GI50: 6.83 µM
[11]; full panel MG-MID / NSCLC subpanel MG-MID
  SI (Selectivity Index): 0.69
[12]; HT-29
  GI50: 3.12 µM
[12]; HT-29, read-out: percent growth inhibition
  inhibition at 10 µM: 165%
[13]; NCI-H23
  GI50: 3.94 µM
[13]; NCI-H23, read-out: percent growth inhibition
  inhibition at 10 µM: 139%
[14]
  GI50 at 48 h: > 100 µM
[15]
  Safety index: >1
[16]; 786-0
  GI50: 8.65 µM
[16]; 786-0, read-out: percent growth inhibition
  inhibition at 10 µM: 182%
[17]; SNB-75
  GI50: 3.34 µM
[17]; SNB-75, read-out: percent growth inhibition
  inhibition at 10 µM: 69.9%
[18]; read-out: GI50 MG-MID
  GI50: 6.46 µM
[18]; read-out: MG-MID GI50
  GI50: 6.46 µM
[18]; full panel MG-MID / Renal Cancer subpanel MG-MID
  SI (Selectivity Index): 0.73
[19]; NCI-H460
  GI50: 4.98 µM
[19]; NCI-H460, read-out: percent growth inhibition
  inhibition at 10 µM: 91.3%
[20]; read-out: GI50 MG-MID
  GI50: 5.56 µM
[20]; read-out: MG-MID GI50
  GI50: 5.56 µM
[20]; full panel MG-MID / Prostatic Cancer subpanel MG-MID
  SI (Selectivity Index): 0.85
[21]
  GI50: 11.5 µM
[21]; [32]
  inhibition at 10 µM: 42.6%
[22]; SK-OV-3
  GI50: 11.8 µM
[22]; SK-OV-3, read-out: percent growth inhibition
  inhibition at 10 µM: 35.8%
[23]; read-out: GI50 MG-MID
  GI50: 2.69 µM
[23]; read-out: MG-MID GI50
  GI50: 2.69 µM
[23]; full panel MG-MID / Breast Cancer subpanel MG-MID
  SI (Selectivity Index): 1.76
[24]
  GI50: 2.82 µM
[24]; [32]
  inhibition at 10 µM: 155%
[25]
  GI50: 3.02 µM
[25]; [32]
  inhibition at 10 µM: 128%
[26]; read-out: GI50 MG-MID
  GI50: 2.76 µM
[26]; read-out: MG-MID GI50
  GI50: 2.76 µM
[26]; full panel MG-MID / leukaemia subpanel MG-MID
  SI (Selectivity Index): 1.72
[27]; read-out: GI50 MG-MID
  GI50: 5.3 µM
[27]; read-out: MG-MID GI50
  GI50: 5.3 µM
[27]; full panel MG-MID / Ovarian Cancer subpanel MG-MID
  SI (Selectivity Index): 0.89
[28]; UACC-62
  GI50: 3.75 µM
[28]; UACC-62, read-out: percent growth inhibition
  inhibition at 10 µM: 151%
[29]; TK-10
  GI50: 6.18 µM
[29]; TK-10, read-out: percent growth inhibition
  inhibition at 10 µM: 60%
[30]
  IC50: 1.46 ± 0.009 µM
[31]; read-out: GI50 MG-MID
  GI50: 3.93 µM
[31]; read-out: MG-MID GI50
  GI50: 3.93 µM
[31]; full panel MG-MID / Colon Cancer subpanel MG-MID
  SI (Selectivity Index): 1.21

Reference: article PMC11003488 (Journal of Enzyme Inhibition and Medicinal Chemistry, 2023)
